Laboratory results as given in patent US9975902B2, “Compounds for the inhibition of cyclophilins and uses thereof” (Merck Patent GmbH, priority 2016, dated 2018).

Legend:
CypD [1] = target: T1, CypD (Homo sapiens (Human), UniProt P30405); assay: CypD binding assay (competition fluorescence polarisation with fluorescine labelled cyclosporin)
Procedure: The binding capacity of the compounds was measured using a competition Fluorescence-Polarisation based assay with fluorescine labelled cyclosporin. The protocol used was adapted from Hausch et al, Med Chem lett 2010, p 536.

CypD [2] = target: T1, CypD; assay: SPR binding; conditions: steady state KD, read-out: SPR CypD (KDss)
Text: Binding was confirmed on an SPR surface using a protocol adapted from Mori et al., J. Biomolecular Screening, 2009, p.

T1 sequence (P30405 30-207): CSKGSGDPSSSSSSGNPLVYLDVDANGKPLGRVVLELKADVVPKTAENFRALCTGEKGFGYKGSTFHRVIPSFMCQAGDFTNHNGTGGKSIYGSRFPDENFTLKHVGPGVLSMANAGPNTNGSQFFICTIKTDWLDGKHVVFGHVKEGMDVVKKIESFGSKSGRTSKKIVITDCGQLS

## O=C(CN1C(=O)[C@@H]2[C@@H]3CC[C@@H](C3)[C@@H]2C1=O)NCc1ccc2c(c1)[C@H]1C[C@@H](N2)[C@H](O)CO1 [Compound 3]
CypD [1]
  IC50: < 10 µM
CypD [2]
  Kd: < 10 µM

## Nc1ccc(CCNC(=O)CN2C(=O)C3CCCCC3C2=O)cc1 (stereo not drawn) [Compound 7, N-[2-(4-Amino-phenyl)-ethyl]-2-(1,3-dioxo-octahydro-isoindol-2-yl)-acetamide]
CypD [1]
  IC50: 10 to 200 µM
CypD [2]
  Kd: 10 to 200 µM

## CCC1Oc2cc(C(C)NC(=O)CN3C(=O)[C@@H]4[C@@H]5CC[C@@H](C5)[C@@H]4C3=O)ccc2NC1=O (stereo partly drawn) [Compound 11, 2-endo-(3,5-Dioxo-4-aza-tricyclo[5.2.1.02,6]dec-4-yl)-N-[1-(2-ethyl-3-oxo-3,4-dihydro-2H-benzo[1,4]oxazin-7-yl)-ethyl]-acetamide]
CypD [1]
  IC50: 10 to 200 µM
CypD [2]
  Kd: 10 to 200 µM

## Nc1ccc(CCNC(=O)CN2C(=O)[C@@H]3[C@@H]4CC[C@@H](C4)[C@@H]3C2=O)cc1 [Compound 10, N-endo-[2-(4-Amino-phenyl)-ethyl]-2-(3,5-dioxo-4-aza-tricyclo[5.2.1.02,6]dec-4-yl)-acetamide]
CypD [1]
  IC50: 10 to 200 µM
CypD [2]
  Kd: 10 to 200 µM

## Nc1ccc(CNC(=O)CN2C(=O)C3C4CCC(O4)C3C2=O)cc1 (stereo not drawn) [Compound 8, N-(4-Amino-benzyl)-2-(3,5-dioxo-10-oxa-4-aza-tricyclo[5.2.1.02,6]dec-4-yl)-acetamide]
CypD [1]
  IC50: 10 to 200 µM
CypD [2]
  Kd: 10 to 200 µM

## CCN1Cc2cc(CNC(=O)CN3C(=O)[C@@H]4[C@H]5CC[C@H](C5)[C@@H]4C3=O)ccc2NCCC1=O [Compound 6]
CypD [1]
  IC50: 10 to 200 µM
CypD [2]
  Kd: 10 to 200 µM

## O=C(CN1C(=O)[C@@H]2[C@H]3CC[C@H](C3)[C@@H]2C1=O)NCc1ccc2c(c1)[C@H]1C[C@@H](N2)[C@H](O)CO1 [Compound 1, 2-exo-(3,5-Dioxo-4-aza-tricyclo[5.2.1.02,6]dec-4-yl)-N-((1R,9R,10S)-10-hydroxy-12-oxa-8-aza-tricyclo[7.3.1.02,7]trideca-2(7),3,5-trien-4-ylmethyl)-acetamide]
CypD [1]
  IC50: < 10 µM
CypD [2]
  Kd: < 10 µM

## O=C(CN1C(=O)[C@@H]2[C@@H]3CC[C@@H](C3)[C@@H]2C1=O)NCCc1ccc2c(c1)CCCN2 [Compound 9, 2-endo-(3,5-Dioxo-4-aza-tricyclo[5.2.1.02,6]dec-4-yl)-N-[2-(1,2,3,4-tetrahydro-quinolin-6-yl)-ethyl]-acetamide]
CypD [1]
  IC50: 10 to 200 µM
CypD [2]
  Kd: 10 to 200 µM

## Nc1ccc(C2(NC(=O)CN3C(=O)[C@@H]4[C@@H]5CC[C@@H](C5)[C@@H]4C3=O)CC2)cc1 [Compound 5, 2-endo-(3,5-Dioxo-4-aza-tricyclo[5.2.1.02,6]dec-4-yl)-N-[1-(4-amino-phenyl)-cyclopropyl]-acetamide]
CypD [1]
  IC50: 10 to 200 µM
CypD [2]
  Kd: 10 to 200 µM
